The target in data set [1] is T1, BCRP (Homo sapiens, UniProt Q9UNQ0).
T1 sequence (Q9UNQ0 1-655): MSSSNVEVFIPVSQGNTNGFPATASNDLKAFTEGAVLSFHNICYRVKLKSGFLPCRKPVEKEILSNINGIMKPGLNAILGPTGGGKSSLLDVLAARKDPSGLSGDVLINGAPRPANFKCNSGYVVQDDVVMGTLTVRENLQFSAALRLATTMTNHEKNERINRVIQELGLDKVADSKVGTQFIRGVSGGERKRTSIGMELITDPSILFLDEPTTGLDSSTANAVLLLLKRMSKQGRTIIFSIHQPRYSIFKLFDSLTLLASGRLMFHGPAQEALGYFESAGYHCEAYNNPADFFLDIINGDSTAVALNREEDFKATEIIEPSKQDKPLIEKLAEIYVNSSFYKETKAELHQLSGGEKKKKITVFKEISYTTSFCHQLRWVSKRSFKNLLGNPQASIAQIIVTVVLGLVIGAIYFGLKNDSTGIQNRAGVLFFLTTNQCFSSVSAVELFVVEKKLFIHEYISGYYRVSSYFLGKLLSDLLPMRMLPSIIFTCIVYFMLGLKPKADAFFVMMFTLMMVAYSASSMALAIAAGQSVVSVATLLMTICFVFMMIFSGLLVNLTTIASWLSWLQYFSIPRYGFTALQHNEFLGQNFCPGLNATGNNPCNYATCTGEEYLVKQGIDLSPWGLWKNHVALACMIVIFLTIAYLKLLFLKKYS
Nature of the data set: BCRP substrate assessment, BCRP-MDCK monolayers. Format: in vitro ADME. The method, then:
(§1) BCRP-MDCK cell monolayers were prepared at Absorption Systems. […] Each determination was performed in duplicate.

The test system of data set [2] is BCRP. Nature of the data set: cell batch quality control, BCRP-MDCK monolayers. Format: in vitro ADME. To be noted: dog; BCRP-MDCK cell batch QC; passage 23. Here is the method:
as §1

Data set [3] has as its target T1, BCRP. As to the kind of experiment: BCRP substrate assessment, Caco-2 monolayers. Format: in vitro ADME. Also noted: host or cells: Caco-2 (clone C2BBe1).
For data set [4], the target named is T1, BCRP. Nature of the data set: in vitro.
The subject of data set [5] is human hepatocytes. To be noted: male, 72 h, 100 μM.

With `Nc1nc(Cl)nc2c1ncn2[C@H]1C[C@H](O)[C@@H](CO)O1` [Cladribine, cladribine], the “BCRP Substrate Classification” value is listed as “Positive” in data set [1] (BCRP-MDCK, Cladribine) and “Positive” in data set [3] (Caco-2, Cladribine). In addition, the recovery at 120 min in data set [1] (dog, pH 7.4, BCRP-MDCK, Cladribine, A-to-B) is 91.3%; in data set [1] (dog, pH 7.4, BCRP-MDCK, Cladribine, B-to-A) it was 92.9%; in data set [1] (dog, pH 7.4, with Ko143 0.5 µM, BCRP-MDCK, Cladribine + 0.5 μM Ko143, A-to-B), 93.5%; in data set [1] (dog, pH 7.4, with Ko143 0.5 µM, BCRP-MDCK, Cladribine + 0.5 μM Ko143, B-to-A), 107%; in data set [3] (human, Caco-2, pH 7.4, Caco-2, Cladribine, A-to-B), 80.5%; in data set [3] (human, Caco-2, pH 7.4, Caco-2, Cladribine, B-to-A) it was 85.6%. Also, the recovery at 120 min in data set [3] (human, Caco-2, pH 7.4, with Ko143 0.5 µM, Caco-2, Cladribine + 0.5 μM Ko143, A-to-B) was determined as 89.8%; in data set [3] (human, Caco-2, pH 7.4, with Ko143 0.5 µM, Caco-2, Cladribine + 0.5 μM Ko143, B-to-A), 87.7%. Besides, the Papp A→B at 120 min in data set [1] (dog, pH 7.4, BCRP-MDCK, Cladribine, A-to-B, read-out: Papp AVG) came out at 0.211 ×10⁻⁶ cm/s; in data set [1] (dog, pH 7.4, BCRP-MDCK, Cladribine, A-to-B, read-out: Papp R1) it was 0.142 ×10⁻⁶ cm/s; in data set [1] (dog, pH 7.4, BCRP-MDCK, Cladribine, A-to-B, read-out: Papp R2) it was 0.28 ×10⁻⁶ cm/s; in data set [3] (human, Caco-2, pH 7.4, Caco-2, Cladribine, A-to-B, read-out: Papp AVG) it was 0.58 ×10⁻⁶ cm/s; in data set [3] (human, Caco-2, pH 7.4, Caco-2, Cladribine, A-to-B, read-out: Papp R1), 0.681 ×10⁻⁶ cm/s; in data set [3] (human, Caco-2, pH 7.4, Caco-2, Cladribine, A-to-B, read-out: Papp R2) it was 0.478 ×10⁻⁶ cm/s. The Papp B→A at 120 min in data set [1] (dog, pH 7.4, BCRP-MDCK, Cladribine, B-to-A, read-out: Papp AVG) stood at 17.6 ×10⁻⁶ cm/s; in data set [1] (dog, pH 7.4, BCRP-MDCK, Cladribine, B-to-A, read-out: Papp R1), 15.6 ×10⁻⁶ cm/s; in data set [1] (dog, pH 7.4, BCRP-MDCK, Cladribine, B-to-A, read-out: Papp R2) it was 19.6 ×10⁻⁶ cm/s; in data set [3] (human, Caco-2, pH 7.4, Caco-2, Cladribine, B-to-A, read-out: Papp AVG), 18.5 ×10⁻⁶ cm/s; in data set [3] (human, Caco-2, pH 7.4, Caco-2, Cladribine, B-to-A, read-out: Papp R1) it was 17.7 ×10⁻⁶ cm/s; in data set [3] (human, Caco-2, pH 7.4, Caco-2, Cladribine, B-to-A, read-out: Papp R2), 19.3 ×10⁻⁶ cm/s. For the same compound, the efflux ratio – broadly, a quotient of directional permeabilities that is used to spot active efflux – at 120 min in data set [1] (dog, pH 7.4, BCRP-MDCK, Cladribine) turned out to be 83.3; in data set [3] (human, pH 7.4, Caco-2, Cladribine), 32. Also, the Papp A→B was determined as 0.136 ×10⁻⁶ cm/s in data set [2]; 0.58 ×10⁻⁶ cm/s in data set [4] (Caco-2, pH 7.4, Papp AVG, Caco-2, Cladribine alone, A-to-B); 0.681 ×10⁻⁶ cm/s in data set [4] (Caco-2, pH 7.4, Papp R1, Caco-2, Cladribine alone, A-to-B); 0.478 ×10⁻⁶ cm/s in data set [4] (Caco-2, pH 7.4, Papp R2, Caco-2, Cladribine alone, A-to-B). The Papp B→A came to 18.4 ×10⁻⁶ cm/s in data set [2]; 18.5 ×10⁻⁶ cm/s in data set [4] (Caco-2, pH 7.4, Papp AVG, Caco-2, Cladribine alone, B-to-A); 14.6 ×10⁻⁶ cm/s in data set [4] (Caco-2, pH 7.4, Papp AVG, IC50 determination, Caco-2, Cladribine alone, B-A); 17.7 ×10⁻⁶ cm/s in data set [4] (Caco-2, pH 7.4, Papp R1, Caco-2, Cladribine alone, B-to-A); 17.8 ×10⁻⁶ cm/s in data set [4] (Caco-2, pH 7.4, Papp R1, IC50 determination, Caco-2, Cladribine alone, B-A); 19.3 ×10⁻⁶ cm/s in data set [4] (Caco-2, pH 7.4, Papp R2, Caco-2, Cladribine alone, B-to-A). In addition, in data set [4] (Caco-2, pH 7.4, Papp R2, IC50 determination, Caco-2, Cladribine alone, B-A), the Papp B→A is 11.5 ×10⁻⁶ cm/s. For the same compound, the efflux ratio in data set [2] came out at 135; in data set [4] (Caco-2, pH 7.4), 32. The recovery in data set [4] (Caco-2, pH 7.4, % Recovery, IC50 determination, Caco-2, Cladribine alone, B-A) was found to be 103%; in data set [4] (Caco-2, pH 7.4, Recovery (%), Caco-2, Cladribine alone, A-to-B) it was 80.5%; in data set [4] (Caco-2, pH 7.4, Recovery (%), Caco-2, Cladribine alone, B-to-A) it was 85.6%.
With `CN(C)CCCN1c2ccccc2Sc2ccc(Cl)cc21` [Chlorpromazine, chlorpromazine], in data set [5], the “% MTS Absorbance Relative to Vehicle Control” value came out at 59.4% and the “Formazan Absorbance (n = 6) Mean” value turned out to be 0.174.

For the origin of these results see US20230049952A1, “METHODS AND COMPOUNDS FOR RESTORING MUTANT P53 FUNCTION” (PMV Pharmaceuticals, Inc., priority 2020, published 2023).
